# Data reported in US20250171556A1, “MULTISPECIFIC ANTIBODIES FOR TREATING CD47-ASSOCIATED DISEASES” (Virtuoso BINco, Inc., priority 2021, published 2025).
# Legend:
# DLD-1 tumor cells = experiment: DLD-1 colorectal cancer xenograft model; type: in vivo, mouse; details: 5 doses, irinotecan 30 mg/kg ip twice per week
# Method: DLD-1 tumor cells were cultured in RPMI 1640 medium supplemented with 10% FBS at 37° C. in an atmosphere of 5% CO2 in air. Female Balb/c nude mice (Shanghai Lingchang Laboratory Animal Technology Co., Ltd.) of 6-8 weeks in age were inoculated subcutaneously with 5×10^6 cells in 0.1 mL PBS for tumor development. Once the average tumor volume reached approximately 150-200 mm^3, the animals were randomized to 6 animals per group and started treatment. Oxaliplatin and 5-fluorouracil (5-FU) were administered through intraperitoneal injection three times per week at a dose of 8 mg/kg and 35 mg/kg, respectively. A total of 4 doses of oxaliplatin and 5 doses of 5-FU were given. Irinotecan was administered through intraperitoneal injection twice per week at a dose of 30 mg/kg for a total of 6 doses. CD47×EpCAM_v5 bispecific antibody was administered through bolus tail vein injection at 20 mg/kg weekly for a total of 5 doses. For the combination groups, the route and dosing schedule were the same as in the single agent treatment groups. Tumor volume was measured twice weekly.
# DLD-1 xenograft model was established as described in Example 13. Treatment was initiated once the average tumor volume reached approximately 150-200 mm^3. Irinotecan was administered through intraperitoneal injection twice per week at a dose of 30 mg/kg for a total of 5 doses. […]
# Hep3B2.1-7 tumor cells = experiment: Hep3B2.1-7 hepatocellular carcinoma xenograft model; type: in vivo, mouse; details: CD47×EpCAM_v5 20 mg/kg iv weekly, 4 doses, irinotecan 15 mg/kg ip twice per week
# Method: Hep3B2.1-7 tumor cells were cultured in EMEM medium supplemented with 10% FBS at 37° C. in an atmosphere containing 5% CO2 in air. Female Balb/c nude mice (Shanghai Lingchang Laboratory Animal Technology Co., Ltd.) of 6-8 weeks in age were inoculated subcutaneously with 8×10^6 cells in 0.1 mL of PBS for tumor development. Once the average tumor volume reached approximately 150-200 mm^3, the animals were randomized to 6 animals per group and started treatment. Irinotecan was administered through intraperitoneal injection twice per week at a dose of 15 mg/kg for a total of 4 doses. CD47×EpCAM_v5 bispecific antibody was administered through bolus tail vein injection at 20 mg/kg weekly for a total of 4 doses. Combination groups followed the same dosing schedule and route of administration as their corresponding monotherapy groups. Tumor volume was measured twice weekly.
smiles,measurement,setting,value
"CCc1c2c(nc3ccc(OC(=O)N4CCC(N5CCCCC5)CC4)cc13)-c1cc3c(c(=O)n1C2)COC(=O)[C@]3(O)CC [irinotecan, reference compound]","Tumor growth in DLD-1 model, single agent (Example 13)","DLD-1 tumor cells; CD47×EpCAM_v5 20 mg/kg iv weekly, 6 doses",not very effective
same,"Tumor growth in DLD-1 model, single agent (Example 14)",DLD-1 tumor cells; antibodies 20 mg/kg iv weekly,partial tumor growth inhibition
same,"Tumor growth in Hep3B2.1-7 model, single agent",Hep3B2.1-7 tumor cells,slowed tumor growth but did not inhibit it
